According to patent US7964341B2, “Human endogenous retrovirus K102 with foamy-virus-like properties and uses thereof” (priority 2005, dated 2011):

System: HERV-K102 replication (cDNA production) in cultured cord blood cells
Assay: Screening for agents able to modulate HERV-K102 replication (cDNA production) in cultured cord blood cells, real time PCR ddCt ratio
Format: cell-based, human
Conditions: for effect on HERV-K102 replication in cultured CB cells: approximately 10^-6 M or equivalent, harvested day 5
From the text: First we wished to show in normal lymphocytes that there are increased levels of HERV-K102 pol DNA over and above genomic when HERV-K102 associated particles are made. For this we extracted DNA and then performed the HERV-K102 ddCt ratio. Please see FIG. 15 for the sequences and location of the forward and reverse primers and the probe used for the real time PCR. […] We developed a ddCt ratio real time PCR method (relative quantitation) which takes the difference between HERV-K102 pol and 18 s RNA Ct's (delta Ct), and subtracts this from the same performed on commercial normal adult genomic DNA (male) (the delta delta Ct). Then we use the algorithm 2−(ddCt) to calculate the relative ratio of HERV-K102 to genomic DNA. This index when elevated above normal ratios (see Table 3 for these ratios) for fluids with contaminating cells (eg plasma and saliva) indicates an excess of non-genomic DNA templates and could be taken as a surrogate marker for putative particles in the sample. […] Since real time PCR is so sensitive, and we were only interested in the DNA copy number of HERV-K102 pol, we subsequently used the Qiagen DNA Mini kit for DNA extractions of plasma.
Commercially available master mix buffer can be purchased with or without Amperase-UNG a highly purified enzyme Uracil-N-Glycosylase, which when included in the buffer for the real time PCR will digest any DNA or cDNA templates containing uracil. […] Thus, if any isolated DNA becomes digested it must be non-genomic.
Finally we investigated certain natural products, drugs and peptide cytokines for their ability to regulate HERV-K replication such as measured in CB cells (Table 7). These agents were tested at approximately 10^−6 M or equivalent. We harvested the study on day 5. […] Tuftsin is naturally cleaved from the FC region of IgG and is considered an immunoenhancing substance and the 1/5000 concentration is usually employed to show its enhancing effects on the activation of monocytes.
Cord blood (CB) isolation. Under aseptic conditions, cord blood was collected into heparinized tubes and peripheral blood mononuclear cells (PBMC) were prepared as follows: the blood was centrifuged at 2700 rpm for 10 minutes, and the buffy coat placed in 5 mls of media (defined as IMDM plus 0.2% penicillin/gentamycin). The mixture was layered onto Ficoll-Paque (Pharmacia #17-0840-03) in a ratio of 1/3 Ficoll to blood suspension. The tubes were centrifuged 30 minutes at 1600 rpm.

[1] = cord blood harvested Day 5, agents at approximately 10^-6 M or equivalent, Day 5 control 2.19
[2] = cord blood harvested Day 5, agents at approximately 10^-6 M or equivalent, relative to Day 5 control ddCt ratio
[3] = cord blood Day 5, uracil-N-glycosylase in master mix, agents at approximately 10^-6 M or equivalent
[4] = Tuftsin 1/5000, cord blood Day 5

Molecule | effect on HERV-K102 replication in cultured CB cells | HERV-K102 ddCt Ratio [1] | Level of Control Activity (%) [2] [%] | ddCt performed with UNG [3] | further results
C[C@]12CC[C@H](O)CC1=CC[C@@H]1[C@@H]2CC[C@]2(C)C(=O)CC[C@@H]12 [DHEA, dihydroepiandrosterone] | enhanced HERV-K102 replication | 2.60 | 119 | – | –
C[C@]12CC[C@@H]3c4ccc(O)cc4CC[C@H]3[C@@H]1CC[C@@H]2O [E2, estradiol] | – | – | 133 | – | –
CC1=C(c2ccc(O)cc2)[C@H](c2ccc(OCCN3CCCCC3)cc2)Oc2cc(O)ccc21 [EM652] | enhanced HERV-K102 replication | 3.07 | 140 | 2.06 (100%) | –
CC/C(=C(\c1ccccc1)c1ccc(OCCN(C)C)cc1)c1ccccc1 [Tamoxifen, tamoxifen] | enhanced HERV-K102 replication | 3.43 | 157 | 2.64 (63%) | –
Tuftsin | – | – | – | – | Level of Control Activity (%) (Tuftsin 1/500, cord blood Day 5): 65.7%; HERV-K102 ddCt Ratio (Tuftsin 1/500, cord blood Day 5, control 2.19): 1.44; Level of Control Activity (%) [4]: 189%; ddCt performed with UNG [4]: 2.10; HERV-K102 ddCt Ratio (Tuftsin 1/5000, cord blood Day 5, control 2.19): 4.14; effect on HERV-K102 replication (Tuftsin at high levels (1/500)): inhibited HERV-K102 replication; effect on HERV-K102 replication (Tuftsin at low levels (1/5000)): enhanced HERV-K102 replication; effect on HERV-BZU activation (depending on concentration, refers to Table 7): can enhance or inhibit HERV-BZU activation
